# According to patent publication US20050100534A1 (priority 2000, published 2005):
# Assays:
# Type in all cases: physicochemical
# [1] = pH stability; conditions: for pH stability: pH range in which stable
# [2] = Solubility in methanol
# [3] = Storage temperature (thermal stability)
# [4] = Solubility in water
# [5] = pKa
pH stability: alkaline hydrolysis above pH ([1]; pH above which alkaline hydrolysis occurs),pH stability [1],Solubility in methanol [2],Storage temperature [3],Solubility in water [4],pKa [5],SMILES
>pH 8-9,Alkaline hydrolysis;,,,,,"NC(=O)[C@H](CO)O[C@@H]1O[C@H](CO)[C@@H](O)[C@H](O)[C@@H]1O [Firoin-A, β-mannosylglyceramide]"
,2-12,10%,up to 95 °C,Very good; 60-70% (w/v),~4.6,O=C(O)[C@H](CO)O[C@@H]1O[C@H](CO)[C@@H](O)[C@H](O)[C@@H]1O
